# Results taken from patent publication US20220071971A1, “MACROCYCLIC COMPOUNDS AND THEIR USE IN THE TREATMENT OF DISEASE” (NOVARTIS AG, priority 2018, published 2022).
# Target: T1, delF508-CFTR (Homo sapiens, UniProt P13569, DEL508-508)
# T1 construct: expressed in transfected cells
# Assay: Measurement of delF508-CFTR-HRP surface expression in CFBE41o- cells
# Format: cell-based
# Settings: for Emax: CFBE41o-, efficacy relative to reference compound 3-(6-(1-(2,2-difluorobenzo[d][1,3]dioxol-5-yl)cyclopropane-1-carboxamido)-3-methylpyridin-2-yl)benzoic acid, read-out: DelF508-CFTR-HRP Amax %; for EC50: HRP-tagged delF508-CFTR surface expression, CFBE41o- cells, 24 h with compound, 10-point curve, highest concentration 10 μM
# From the text: Measurement of deIF508-CFTR-HRP Surface Expression in CFBE41o-Cells
# This assay quantifies the cell surface expressions of the mutant CFTR channel using an extracellular HRP tag.
# A cellular assay was developed to measure surface expression of horseradish peroxidase (HRP) tagged delF508-CFTR in the human bronchial epithelial immortalized CFBE41o-cell line (Phuan, P. W., et al, (2014) Molecular Pharmacology 86:42-51). Specifically, the HRP sequence was inserted into the fourth extracellular loop of delF508-CFTR and stably expressed in CFBE41o-cells. Cells were seeded in 384 well plate at a density of 5000 cells/well and incubated at 37° C. for 12 to 24 hours in medium (Gibco MEM #11095, 10% FBS, 10 mM HEPES, […], 200 μg/mL G418, 3 μg/mL Puromycin). The delF508-CFTR-HRP expression was induced with 500 ng/mL doxycycline (Sigma D-9891, dissolved in H2O and sterile filtered) in medium and the cells were incubated at 37° C. for 48 h. Old medium was removed and fresh medium was added containing 500 ng/mL doxycycline and unknown test compound at required test concentration in DMSO, not exceeding 0.5% final DMSO concentration. The highest concentration tested was 10 μM with a 10-point concentration response curve using a 3-fold dilution. After addition of compounds, the cells were incubated for 24 h at 37° C. On the final day, cells were washed four times in PBS containing 1 mM MgCl2 and 0.1 mM CaCl2. HRP-Substrate (SuperSignal ELISA Pico, Fisher #37069) 20 μl/well was added and the luminescence signal was determined (Viewlux, Perkin Elmer). Light was emitted upon addition of exogenous HRP-Substrate only when delF508-CFTR-HRP reached the cell surface and the HRP tag was accessible to the HRP-Substrate (note: HRP-Substrate cannot cross the lipid bilayer to reach delF508-CFTR-HRP misfolded within the cell).
# The median activity for the lowest concentration of the compounds on each assay plate was calculated and this value was used to normalize the signal for each well on the respective plate. Three replicates at each concentrations for every compound were run to determine one EC50. The median value was determined and used to calculate compound activities as described below. Effective half maximal values (EC50) were calculated for each compound by performing logistic regression on measured dose-response data points using the equation: […]
# where “Y” is the observed activity, “Bottom” is the lowest observed value, “Top” is the highest observed value, and the “Hill coefficient” gives the largest absolute value of the slope. The curve fitting is carried out by a curve fitting program implemented at GNF using Matlab (Mathworks).
# The dose response curves also were used to calculate Fold Change (FC) using the equation: […]
# Compound efficacy relative to the reference compound 3-(6-(1-(2,2-difluorobenzo[d][1,3]dioxol-5-yl)cyclopropane-1-carboxamido)-3-methylpyridin-2-yl)benzoic acid was determined using the following formula: […]
# T1 sequence (P13569 with tags, fused parts or gaps DEL508-508): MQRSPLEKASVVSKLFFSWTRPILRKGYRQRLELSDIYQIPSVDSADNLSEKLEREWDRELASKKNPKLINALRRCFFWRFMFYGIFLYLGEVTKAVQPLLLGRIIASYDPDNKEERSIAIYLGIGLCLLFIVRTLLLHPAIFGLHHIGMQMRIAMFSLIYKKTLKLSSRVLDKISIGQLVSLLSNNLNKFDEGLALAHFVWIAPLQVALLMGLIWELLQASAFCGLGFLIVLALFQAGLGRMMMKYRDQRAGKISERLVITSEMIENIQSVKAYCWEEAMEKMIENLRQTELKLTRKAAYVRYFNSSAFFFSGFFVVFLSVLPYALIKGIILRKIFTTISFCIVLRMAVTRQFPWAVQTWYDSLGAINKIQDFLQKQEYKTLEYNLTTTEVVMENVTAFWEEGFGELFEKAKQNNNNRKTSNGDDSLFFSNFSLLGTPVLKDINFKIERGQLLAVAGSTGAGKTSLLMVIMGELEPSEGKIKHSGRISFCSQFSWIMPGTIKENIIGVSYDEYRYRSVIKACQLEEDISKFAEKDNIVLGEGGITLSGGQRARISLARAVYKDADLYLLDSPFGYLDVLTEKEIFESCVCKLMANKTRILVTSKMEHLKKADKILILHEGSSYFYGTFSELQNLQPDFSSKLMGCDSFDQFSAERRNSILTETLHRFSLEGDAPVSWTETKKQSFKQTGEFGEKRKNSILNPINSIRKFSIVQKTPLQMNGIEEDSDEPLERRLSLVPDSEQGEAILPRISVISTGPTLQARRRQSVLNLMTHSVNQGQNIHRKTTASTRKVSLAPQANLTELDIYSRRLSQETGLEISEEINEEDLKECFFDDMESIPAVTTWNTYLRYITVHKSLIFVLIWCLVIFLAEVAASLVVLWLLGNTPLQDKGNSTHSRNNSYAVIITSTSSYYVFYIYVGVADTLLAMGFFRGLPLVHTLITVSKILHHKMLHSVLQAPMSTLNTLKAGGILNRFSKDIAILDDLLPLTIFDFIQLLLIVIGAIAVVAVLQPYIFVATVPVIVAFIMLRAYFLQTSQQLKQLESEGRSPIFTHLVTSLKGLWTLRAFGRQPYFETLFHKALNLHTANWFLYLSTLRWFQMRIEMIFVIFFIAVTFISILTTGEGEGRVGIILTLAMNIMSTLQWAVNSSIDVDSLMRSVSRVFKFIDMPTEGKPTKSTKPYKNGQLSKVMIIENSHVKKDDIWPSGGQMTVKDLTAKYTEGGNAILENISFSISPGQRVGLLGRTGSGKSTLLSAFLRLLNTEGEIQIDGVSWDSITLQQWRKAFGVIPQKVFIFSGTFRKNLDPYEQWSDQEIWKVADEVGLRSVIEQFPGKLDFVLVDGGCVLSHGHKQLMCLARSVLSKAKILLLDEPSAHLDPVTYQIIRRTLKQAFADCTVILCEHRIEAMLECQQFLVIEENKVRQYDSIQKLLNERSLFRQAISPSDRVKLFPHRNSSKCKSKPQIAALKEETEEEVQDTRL
Structure (SMILES),Emax,EC50
"O=S1(=O)Nc2ccc(C(F)(F)F)c(n2)-c2cc(F)ccc2OCCCCN(CCCCO)c2cccc1n2 [Compound 23, 1^5-fluoro-6-(4-hydroxybutyl)-2^3-(trifluoromethyl)-11-oxa-4-thia-3,6-diaza-2,5(2,6)-dipyridina-1(1,2)-benzenacycloundecaphane 4,4-dioxide]",592%,690 nM
"O=S1(=O)Nc2ccc(Cl)c(n2)-c2ccccc2CCCCCN(CCCO)c2cccc1n2 [Compound 24, 2^3-chloro-6-(3-hydroxypropyl)-4-thia-3,6-diaza-2,5(2,6)-dipyridina-1(1,2)-benzenacycloundecaphane 4,4-dioxide]",448%,165 nM
"O=S1(=O)Nc2ccc(C(F)(F)F)c(n2)-c2ccccc2CCCCCN(CCCCO)c2cccc1n2 [Compound 25, 6-(4-hydroxybutyl)-2^3-(trifluoromethyl)-4-thia-3,6-diaza-2,5(2,6)-dipyridina-1(1,2)-benzenacycloundecaphane 4,4-dioxide]",932%,267 nM
"O=S1(=O)Nc2ccc(C(F)(F)F)c(n2)-c2cc(F)ccc2CCCCCN(CCCO)c2cccc1n2 [Compound 26, 1^5-fluoro-6-(3-hydroxypropyl)-2^3-(trifluoromethyl)-4-thia-3,6-diaza-2,5(2,6)-dipyridina-1(1,2)-benzenacycloundecaphane 4,4-dioxide]",,668 nM
"O=S1(=O)Nc2ccc(C(F)(F)F)c(n2)-c2ccccc2CCCCCN(CCCO)c2cccc1n2 [Compound 29, 6-(3-hydroxypropyl)-2^3-(trifluoromethyl)-4-thia-3,6-diaza-2,5(2,6)-dipyridina-1(1,2)-benzenacycloundecaphane 4,4-dioxide]",517%,146 nM
"O=S1(=O)Nc2ccc(C(F)(F)F)c(n2)-c2cc(F)ccc2CCCCCNc2cccc1n2 [Compound 31, 1^5-fluoro-2^3-(trifluoromethyl)-4-thia-3,6-diaza-2,5(2,6)-dipyridina-1(1,2)-benzenacycloundecaphane 4,4-dioxide]",580%,614 nM
"CCOC(=O)C(C)(C)CN1CCCCCCc2ccccc2-c2nc(ccc2C(F)(F)F)NS(=O)(=O)c2cccc1n2 [Compound 32, ethyl 3-(4,4-dioxido-2^3-(trifluoromethyl)-4-thia-3,6-diaza-2,5(2,6)-dipyridina-1(1,2)-benzenacyclododecaphane-6-yl)-2,2-dimethylpropanoate]",,295 nM
"O=S1(=O)Nc2ccc(C(F)(F)F)c(n2)-c2ccccc2CCC(O)CNc2cccc1n2 (stereo not shown) [Compound 33, 8-hydroxy-2^3-(trifluoromethyl)-4-thia-3,6-diaza-2,5(2,6)-dipyridina-1(1,2)-benzenacyclodecaphane 4,4-dioxide]",119%,3300 nM
"CC1(C)O[C@@H](CO)[C@H](CN2CCCCCc3ccccc3-c3nc(ccc3C(F)(F)F)NS(=O)(=O)c3cccc2n3)O1 [Compound 34, 6-(((4S,5S)-5-(hydroxymethyl)-2,2-dimethyl-1,3-dioxolan-4-yl)methyl)-2^3-(trifluoromethyl)-4-thia-3,6-diaza-2,5(2,6)-dipyridina-1(1,2)-benzenacycloundecaphane 4,4-dioxide]",448%,281 nM
"CN1CCCCCCc2ccccc2-c2nc(ccc2C(F)(F)F)NS(=O)(=O)c2cccc1n2 [Compound 35, 6-methyl-2^3-(trifluoromethyl)-4-thia-3,6-diaza-2,5(2,6)-dipyridina-1(1,2)-benzenacyclododecaphane 4,4-dioxide]",715%,331 nM
"O=S1(=O)Nc2ccc(C(F)(F)F)c(n2)-c2ccccc2CCCCCCNc2cccc1n2 [Compound 36, 2^3-(trifluoromethyl)-4-thia-3,6-diaza-2,5(2,6)-dipyridina-1(1,2)-benzenacyclododecaphane 4,4-dioxide]",583%,253 nM
"CC1(C)OCC(CN2CCCCCc3ccccc3-c3nc(ccc3C(F)(F)F)NS(=O)(=O)c3cccc2n3)O1 (stereo not shown) [Compound 37, 6-((2,2-dimethyl-1,3-dioxolan-4-yl)methyl)-2^3-(trifluoromethyl)-4-thia-3,6-diaza-2,5(2,6)-dipyridina-1(1,2)-benzenacycloundecaphane 4,4-dioxide]",651%,385 nM
"O=S1(=O)Nc2ccc(C(F)(F)F)c(n2)-c2ccccc2CCCCCCCN(CCCO)c2cccc1n2 [Compound 39, 6-(3-hydroxypropyl)-2^3-(trifluoromethyl)-4-thia-3,6-diaza-2,5(2,6)-dipyridina-1(1,2)-benzenacyclotridecaphane 4,4-dioxide]",,233 nM
"O=S1(=O)Nc2ccc(C(F)(F)F)c(n2)-c2ccccc2CCCCCCCN(CCCCO)c2cccc1n2 [Compound 40, 6-(4-hydroxybutyl)-2^3-(trifluoromethyl)-4-thia-3,6-diaza-2,5(2,6)-dipyridina-1(1,2)-benzenacyclotridecaphane 4,4-dioxide]",,220 nM
"O=S1(=O)Nc2ccc(C(F)(F)F)c(n2)-c2ccccc2CCCCCCCN(CCCCCO)c2cccc1n2 [Compound 41, 6-(5-hydroxypentyl)-2^3-(trifluoromethyl)-4-thia-3,6-diaza-2,5(2,6)-dipyridina-1(1,2)-benzenacyclotridecaphane 4,4-dioxide]",,187 nM
"O=S1(=O)Nc2ccc(C(F)(F)F)c(n2)-c2ccccc2CCCCCCCCCN(CCCCO)c2cccc1n2 [Compound 42, 6-(4-hydroxybutyl)-2^3-(trifluoromethyl)-4-thia-3,6-diaza-2,5(2,6)-dipyridina-1(1,2)-benzenacyclopentadecaphane 4,4-dioxide]",,219 nM
"O=S1(=O)Nc2ccc(C(F)(F)F)c(n2)-c2ccccc2CCCCCCCCN(CCCO)c2cccc1n2 [Compound 43, 6-(3-hydroxypropyl)-2^3-(trifluoromethyl)-4-thia-3,6-diaza-2,5(2,6)-dipyridina-1(1,2)-benzenacyclotetradecaphane 4,4-dioxide]",,255 nM
"O=S1(=O)Nc2ccc(C(F)(F)F)c(n2)-c2ccccc2CCCCCCCCN(CCCCO)c2cccc1n2 [Compound 44, 6-(4-hydroxybutyl)-2^3-(trifluoromethyl)-4-thia-3,6-diaza-2,5(2,6)-dipyridina-1(1,2)-benzenacyclotetradecaphane 4,4-dioxide]",,159 nM
"O=S1(=O)Nc2ccc(C(F)(F)F)c(n2)-c2ccccc2CCCCCCCCCN(CCCO)c2cccc1n2 [Compound 45, 6-(3-hydroxypropyl)-2^3-(trifluoromethyl)-4-thia-3,6-diaza-2,5(2,6)-dipyridina-1(1,2)-benzenacyclopentadecaphane 4,4-dioxide]",,361 nM
"COC(=O)CN1CCCCCCc2ccccc2-c2nc(ccc2C(F)(F)F)NS(=O)(=O)c2cccc1n2 [Compound 61, methyl 2-(4,4-dioxido-2^3-(trifluoromethyl)-4-thia-3,6-diaza-2,5(2,6)-dipyridina-1(1,2)-benzenacyclododecaphane-6-yl)acetate]",,368 nM
"O=C(O)CCN1CCCCCCCc2ccccc2-c2nc(ccc2C(F)(F)F)NS(=O)(=O)c2cccc1n2 [Compound 62, 3-(4,4-dioxido-2^3-(trifluoromethyl)-4-thia-3,6-diaza-2,5(2,6)-dipyridina-1(1,2)-benzenacyclotridecaphane-6-yl)propanoic acid]",,403 nM
"O=C(O)CCCN1CCCCOc2ccc(F)cc2-c2nc(ccc2C(F)(F)F)NS(=O)(=O)c2cccc1n2 [Compound 63, 4-(1^5-fluoro-4,4-dioxido-2^3-(trifluoromethyl)-11-oxa-4-thia-3,6-diaza-2,5(2,6)-dipyridina-1(1,2)-benzenacycloundecaphane-6-yl)butanoic acid]",,1800 nM
"O=C(O)CCOCCN1CCCCCc2ccccc2-c2nc(ccc2C(F)(F)F)NS(=O)(=O)c2cccc1n2 [Compound 64, 3-(2-(4,4-dioxido-2^3-(trifluoromethyl)-4-thia-3,6-diaza-2,5(2,6)-dipyridina-1(1,2)-benzenacycloundecaphane-6-yl)ethoxy)propanoic acid]",862%,913 nM
